The text below walks through data of article PMC12189828, “Substitution of Proline Residues by 4-Fluoro-L-Proline Affects the Mechanism of the Proline-Rich Antimicrobial Peptide Api137” (Antibiotics, 2025).

Data set [1] deals with 50S subunit assembly / 70S ribosome in E. coli RN31. As to the kind of experiment: Ribosome profile analysis (RPA), sucrose gradient of E. coli RN31 lysate. In kind it is cell-based, Escherichia coli. Conditions: 90 min.
The target in data set [2] is 70S ribosomes isolated from E. coli BW25113 (Escherichia coli, UniProt P60723+P61175). Put plainly: Fluorescence polarization, competition with cf-Api137 for 70S ribosome binding (Ki). Conditions: crude 70S ribosome extract, fluorescence polarization, 28 °C, 90 min + 90 min; two independent experiments with two replicates each (n = 4); Table 2. How it is done: E. coli BW25113 were cultivated in LB medium and harvested by centrifugation (5000× g, 15 min, 4 °C) at an OD600 of 3–4. Cell pellets were washed in ribosome preparation buffer (20 mmol/L HEPES-KOH, 6 mmol/L MgCl2, 30 mmol/L NH4Cl, pH 7.6, 4 °C), centrifuged (4100× g, 30 min, 4 °C), and resuspended in ribosome preparation buffer (0.5 g/L) containing freshly added 2-mercaptoethanol (4 mmol/L) and lysozyme. Cells were incubated on ice for 30 min and disrupted in six cycles using a FastPrep-24^TM 5G instrument (MP Biomedicals, Eschwege, Germany) with the BigPrep 50 mL setting (40 s, 4.0 m/s), interrupted by one minute of incubation on ice between the cycles. After a centrifugation step (1620× g, 5 min, 4 °C), DNase I (5 U/mL) was added to the supernatant and incubated for 1 h on ice. Cell debris was removed by centrifugation at 16,000× g (30 min, 4 °C) and twice at 32,000× g (60 min, 4 °C). Crude ribosomes were obtained by centrifugation at 165,000× g (17 h, 4 °C). […]
Inhibition constants (Ki) were measured for the 70S ribosome extract using cf-labeled and unlabeled peptides in ribosome preparation buffer. […] Fluorescence polarization was determined on a PARADIGM^TM microplate reader in the top reading position (λex = 485 nm, λem = 535 nm). […] Ki values were calculated as described by Mathias and Jung.

Another data set deals with mice. Conditions: cited from earlier work.

Where a SMILES comes first, the peptide text is derived from it. The star is where a group is joined. Orn(α-tetramethylguanidino) = CN(C)C(=N[C@@H](CCCN)C(=O)*)N(C)C

As to `CC[C@H](C)[C@H](NC(=O)[C@H](Cc1ccc(O)cc1)NC(=O)[C@@H](NC(=O)[C@@H]1CCCN1C(=O)[C@H](CCCNC(=N)N)NC(=O)[C@H](CC(N)=O)NC(=O)[C@H](CC(N)=O)NC(=O)[C@H](CCCN)N=C(N(C)C)N(C)C)C(C)C)C(=O)N1CCC[C@H]1C(=O)N[C@@H](CCCNC(=N)N)C(=O)N1CCC[C@H]1C(=O)N[C@@H](CCCNC(=N)N)C(=O)N1CCC[C@H]1C(=O)N1CCC[C@H]1C(=O)N[C@@H](Cc1c[nH]cn1)C(=O)N1CCC[C@H]1C(=O)N[C@@H](CCCNC(=N)N)C(=O)N[C@@H](CC(C)C)C(=O)O` [Api137] ({Orn(α-tetramethylguanidino)}-NNRPVYIPRPRPPHPRL-OH; N-terminus and C-terminus assumed), the “RPA [pre-50S formation]” value in data set [1] (E. coli RN31, 33% TSB, peptide 8 µg/mL, 5–25% sucrose gradient, n = 2 (Api137 n = 7)) is given as “yes”. Also, the “70S peak (area) relative to untreated control” value in data set [1] (E. coli RN31, peptide 8 µg/mL, sucrose gradient profile) is ~ 50%. The Ki in data set [2] was found to be 2.6 ± 0.2 nM. Also, the tolerability in mice result in the data set with mice was “well tolerated”.
